Source: ChEMBL document CHEMBL5303573, “Mapping human microbiome drug metabolism by gut bacteria and their genes” (Nature, 2019)

Assays:
[1] = The drug is tested on Bifidobacterium longum subsp. Infantis strain: CCUG52486 for biotransformation. The drug concentrations were measured before and after a 12-h incubation by liquid-chromatography-coupled mass spectrometry (LC–MS); conditions: 2 µM
[2] = The drug is tested on Bifidobacterium ruminantium strain: fecal isolate for biotransformation. The drug concentrations were measured before and after a 12-h incubation by liquid-chromatography-coupled mass spectrometry (LC–MS); conditions: 2 µM
[3] = The drug is tested on Bacteroides pectinophilus strain: ATCC43243 for biotransformation. The drug concentrations were measured before and after a 12-h incubation by liquid-chromatography-coupled mass spectrometry (LC–MS); conditions: 2 µM
[4] = The drug is tested on Bacteroides uniformis strain: ATCC8492 for biotransformation. The drug concentrations were measured before and after a 12-h incubation by liquid-chromatography-coupled mass spectrometry (LC–MS); conditions: 2 µM
[5] = The drug is tested on Anaerotruncus colihominis strain: DSM17241 for biotransformation. The drug concentrations were measured before and after a 12-h incubation by liquid-chromatography-coupled mass spectrometry (LC–MS); conditions: 2 µM
[6] = The drug is tested on Clostridium sp. strain: fecal isolate for biotransformation. The drug concentrations were measured before and after a 12-h incubation by liquid-chromatography-coupled mass spectrometry (LC–MS); conditions: 2 µM
[7] = The drug is tested on Coprococcus comes strain: ATCC27758 for biotransformation. The drug concentrations were measured before and after a 12-h incubation by liquid-chromatography-coupled mass spectrometry (LC–MS); format: ADME; design: dose 2 uM, timepoint 0 vs 12 hours; conditions: 2 µM
[8] = The drug is tested on Eubacterium hallii strain: DSM3353 for biotransformation. The drug concentrations were measured before and after a 12-h incubation by liquid-chromatography-coupled mass spectrometry (LC–MS); conditions: anaerobutyricum hallii, 2 µM
[9] = The drug is tested on Eubacterium rectale strain: ATCC33656 for biotransformation. The drug concentrations were measured before and after a 12-h incubation by liquid-chromatography-coupled mass spectrometry (LC–MS); conditions: agathobacter rectalis, 2 µM
[10] = The drug is tested on Providencia rettgeri strain: DSM1131 for biotransformation. The drug concentrations were measured before and after a 12-h incubation by liquid-chromatography-coupled mass spectrometry (LC–MS); format: ADME; design: dose 2 uM, timepoint 0 vs 12 hours; conditions: 2 µM
[11] = bifidobacterium adolescentis, 12 h, 2 µM
Description: The drug is tested on Bifidobacterium adolescentis strain: ATCC 15703 for biotransformation. The drug concentrations were measured before and after a 12-h incubation by liquid-chromatography-coupled mass spectrometry (LC–MS)

[12] = bacteroides eggerthii, 12 h, 2 µM
Description: The drug is tested on Bacteroides eggerthii strain: DSM20697 for biotransformation. The drug concentrations were measured before and after a 12-h incubation by liquid-chromatography-coupled mass spectrometry (LC–MS)

[13] = parabacteroides distasonis, 12 h, 2 µM
Description: The drug is tested on Parabacteroides distasonis strain: ATCC8503 for biotransformation. The drug concentrations were measured before and after a 12-h incubation by liquid-chromatography-coupled mass spectrometry (LC–MS)

[14] = segatella copri, 12 h, 2 µM
Description: The drug is tested on Prevotella copri strain: DSM18205 for biotransformation. The drug concentrations were measured before and after a 12-h incubation by liquid-chromatography-coupled mass spectrometry (LC–MS)

[15] = enterocloster bolteae, 12 h, 2 µM
Description: The drug is tested on Clostridium bolteae strain: ATCCBAA-613 for biotransformation. The drug concentrations were measured before and after a 12-h incubation by liquid-chromatography-coupled mass spectrometry (LC–MS)

[16] = akkermansia muciniphila, 12 h, 2 µM
Description: The drug is tested on Akkermansia muciniphila strain: ATCC BAA-835 for biotransformation. The drug concentrations were measured before and after a 12-h incubation by liquid-chromatography-coupled mass spectrometry (LC–MS)

[17] = The drug is tested on Providencia stuartii strain: ATCC25827 for biotransformation. The drug concentrations were measured before and after a 12-h incubation by liquid-chromatography-coupled mass spectrometry (LC–MS); conditions: 2 µM
[18] = bacteroides intestinalis, 12 h, 2 µM
Description: The drug is tested on Bacteroides intestinalis strain: DSM17393 for biotransformation. The drug concentrations were measured before and after a 12-h incubation by liquid-chromatography-coupled mass spectrometry (LC–MS)

[19] = roseburia intestinalis, 12 h, 2 µM
Description: The drug is tested on Roseburia intestinalis strain: L1-82 for biotransformation. The drug concentrations were measured before and after a 12-h incubation by liquid-chromatography-coupled mass spectrometry (LC–MS)

SMILES | Bacterial Biotransformation [1] | Bacterial Biotransformation [2] | Bacterial Biotransformation [3] | Bacterial Biotransformation [4] | Bacterial Biotransformation [5] | Bacterial Biotransformation [6] | Bacterial Biotransformation [7] | Bacterial Biotransformation [8] | Bacterial Biotransformation [9] | Bacterial Biotransformation [10] | Bacterial Biotransformation [11] | Bacterial Biotransformation [12] | Bacterial Biotransformation [13] | Bacterial Biotransformation [14] | Bacterial Biotransformation [15] | Bacterial Biotransformation [16] | Bacterial Biotransformation [17] | Bacterial Biotransformation [18] | Bacterial Biotransformation [19]
COC1=CC(=O)C[C@@H](C)[C@]12Oc1c(Cl)c(OC)cc(OC)c1C2=O [GRISEOFULVIN] | Compound NOT metabolized | Compound NOT metabolized | Compound NOT metabolized | Compound metabolized | Compound NOT metabolized | Compound metabolized | Compound NOT metabolized | Compound NOT metabolized | Compound NOT metabolized | Compound NOT metabolized | Compound NOT metabolized | Compound metabolized | Compound metabolized | Compound metabolized | Compound NOT metabolized | Compound metabolized |  |  | 
CC(C)(C)N.CCC[C@H](N[C@@H](C)C(=O)N1[C@H](C(=O)O)C[C@@H]2CCCC[C@@H]21)C(=O)OCC [PERINDOPRIL ERBUMINE] | Compound NOT metabolized | Compound NOT metabolized | Compound NOT metabolized | Compound NOT metabolized | Compound NOT metabolized | Compound NOT metabolized | Compound NOT metabolized | Compound NOT metabolized |  | Compound NOT metabolized | Compound NOT metabolized | Compound NOT metabolized | Compound NOT metabolized |  | Compound NOT metabolized | Compound NOT metabolized | Compound NOT metabolized | Compound NOT metabolized | Compound NOT metabolized
Nc1nc2ccc(OC(F)(F)F)cc2s1 [RILUZOLE] | Compound NOT metabolized | Compound metabolized | Compound NOT metabolized | Compound metabolized | Compound NOT metabolized | Compound metabolized |  | Compound NOT metabolized | Compound NOT metabolized |  | Compound NOT metabolized | Compound metabolized | Compound metabolized | Compound NOT metabolized | Compound NOT metabolized | Compound NOT metabolized | Compound NOT metabolized | Compound NOT metabolized | Compound NOT metabolized
CC(N)C12CC3CC(CC(C3)C1)C2 (configuration not stated) [RIMANTADINE] | Compound NOT metabolized | Compound NOT metabolized | Compound NOT metabolized | Compound NOT metabolized | Compound NOT metabolized | Compound NOT metabolized | Compound NOT metabolized | Compound NOT metabolized | Compound NOT metabolized | Compound NOT metabolized | Compound NOT metabolized | Compound NOT metabolized | Compound NOT metabolized | Compound NOT metabolized | Compound NOT metabolized |  | Compound NOT metabolized | Compound NOT metabolized | Compound NOT metabolized
c1ccc2[nH]c(-c3cscn3)nc2c1 [THIABENDAZOLE] | Compound NOT metabolized | Compound NOT metabolized | Compound NOT metabolized | Compound NOT metabolized | Compound NOT metabolized | Compound NOT metabolized | Compound NOT metabolized | Compound NOT metabolized | Compound NOT metabolized | Compound NOT metabolized | Compound NOT metabolized | Compound NOT metabolized |  | Compound NOT metabolized | Compound NOT metabolized | Compound NOT metabolized | Compound NOT metabolized | Compound NOT metabolized | Compound NOT metabolized
CCOC(=O)C1=C[C@]2(CC)CCCN3CCc4c(n1c1ccccc41)[C@@H]32 [VINPOCETINE] | Compound NOT metabolized | Compound NOT metabolized | Compound NOT metabolized |  | Compound NOT metabolized | Compound metabolized | Compound NOT metabolized | Compound NOT metabolized | Compound NOT metabolized | Compound NOT metabolized | Compound NOT metabolized | Compound NOT metabolized |  | Compound NOT metabolized | Compound NOT metabolized |  | Compound NOT metabolized | Compound NOT metabolized | 
C[C@@H](c1ncncc1F)[C@](O)(Cn1cncn1)c1ccc(F)cc1F [VORICONAZOLE] | Compound NOT metabolized | Compound NOT metabolized | Compound NOT metabolized | Compound metabolized | Compound NOT metabolized | Compound NOT metabolized | Compound NOT metabolized | Compound NOT metabolized | Compound NOT metabolized |  | Compound NOT metabolized | Compound NOT metabolized | Compound metabolized | Compound NOT metabolized | Compound NOT metabolized | Compound NOT metabolized | Compound NOT metabolized |  | Compound NOT metabolized
CCN(C(C)=O)c1cccc(-c2ccnc3c(C#N)cnn23)c1 [ZALEPLON] |  | Compound NOT metabolized | Compound NOT metabolized | Compound metabolized | Compound NOT metabolized | Compound metabolized | Compound NOT metabolized | Compound NOT metabolized |  | Compound NOT metabolized |  | Compound NOT metabolized | Compound NOT metabolized | Compound NOT metabolized |  | Compound NOT metabolized | Compound NOT metabolized | Compound NOT metabolized | 
